From patent US5079260A, “Method for treating inflammation and compounds and compositions suitable for use therein” (Nova Pharmaceutical Corporation, priority 1990, dated 1992)

system: Ear Edema Caused by Arachidonic Acid; assay: Inhibition of Ear Edema Caused by Arachidonic Acid (II), Table 8; type: in vivo, CF-1 mice; conditions: i.p., 10 mg/kg; sixty minutes
Procedure: Inhibition of Ear Edema Caused by Arachidonic Acid (II)
CF-1 mice, 25-30 g body weight, six animals per group, were used. The requisite amount of the test compound was dissolved is dimethyl sulfoxide or 0.5% methylcellulose and 100 μL of the solution was injected intraperitoneally 30 minutes prior to the administration of 100 mg/kg of arachidponic acid. A solution of this irritant, b 100 mg/mL in ethanol, was applied to the surface of the ear, 5 μL to the upper surface and 5 μL to the lower surface. After sixty minutes, the thickness of the ear was measured to 0.01 mm by a micrometer with the loose drag positioned at the lateral-most edge of the mid-point of the pinna. Data were calculated as the percent inhibityion by the test compound of increased ear thickness compared to control animals recieveing only the irritant.

Compound	% Inhibition Intraperitoneal [%]
Cc1cccc2c1-c1ccccc1C2COC(=O)N[C@@H](CC(C)C)C(=O)O (stereo partly drawn) [NPC 15325, N-{[9H-(4-Methylfluoren-9-yl)methoxy]carbonyl}-L-leucine]	52
CCCC[C@H](NC(=O)OCC1c2ccccc2-c2cccc(C)c21)C(=O)O (stereo partly drawn) [NPC 15951, N-{[9H-(1-Methylfluoren-9-yl)methoxy]carbonyl}-L-norleucine]	11
Cc1cccc2c1-c1ccccc1C2COC(=O)N[C@H](C(=O)O)C(C)(C)C (stereo partly drawn) [NPC 15904, N-{[9H-(4-Methylfluoren-9-yl)methoxy]carbonyl}-L-tert-leucine]	19

same assay, conditions: i.p., 30 mg/kg; sixty minutes

Compound	% Inhibition Intraperitoneal [%]
Cc1cccc2c1-c1ccccc1C2COC(=O)N[C@@H](CC(C)C)C(=O)O (stereo partly drawn) [NPC 15325, N-{[9H-(4-Methylfluoren-9-yl)methoxy]carbonyl}-L-leucine]	63
CCCC[C@H](NC(=O)OCC1c2ccccc2-c2cccc(C)c21)C(=O)O (stereo partly drawn) [NPC 15951, N-{[9H-(1-Methylfluoren-9-yl)methoxy]carbonyl}-L-norleucine]	18
Cc1cccc2c1-c1ccccc1C2COC(=O)N[C@H](C(=O)O)C(C)(C)C (stereo partly drawn) [NPC 15904, N-{[9H-(4-Methylfluoren-9-yl)methoxy]carbonyl}-L-tert-leucine]	54

same assay, conditions: i.p., 100 mg/kg; sixty minutes

Compound	% Inhibition Intraperitoneal [%]
Cc1cccc2c1-c1ccccc1C2COC(=O)N[C@@H](CC(C)C)C(=O)O (stereo partly drawn) [NPC 15325, N-{[9H-(4-Methylfluoren-9-yl)methoxy]carbonyl}-L-leucine]	100
CCCC[C@H](NC(=O)OCC1c2ccccc2-c2cccc(C)c21)C(=O)O (stereo partly drawn) [NPC 15951, N-{[9H-(1-Methylfluoren-9-yl)methoxy]carbonyl}-L-norleucine]	56
Cc1cccc2c1-c1ccccc1C2COC(=O)N[C@H](C(=O)O)C(C)(C)C (stereo partly drawn) [NPC 15904, N-{[9H-(4-Methylfluoren-9-yl)methoxy]carbonyl}-L-tert-leucine]	79

system: Ear Edema Caused by Xylene; assay: Inhibition of Ear Edema Caused by Xylene (II), Table 9; type: in vivo, CF-1 mice; conditions: i.p., 10 mg/kg; 2 h
Procedure: Inhibition of Ear Edema Caused by Xylene (II)
CF-1 mice, 25-30 g body weight, six animals per group, were used. The requisite amount of the test compound was dissolved is dimethyl sulfoxide or 0.5% methylcellulose and 100 μL of the solution was injected intraperitoneally 30 minutes prior to the administration the irritant. The irritant xylene was applied to the surface of the ear, 20 μL to the upper surface and 20 μL to the lower surface, After two hours, the thickness of the ear was measured to 0.01 mm by a micrometer with the loose drag positioned at the lateral-most edge of the mid-point of the pinna. Data were calculated as the percent inhibition by the test compound of increased ear thickness compared to control animals receiving only the irritant.

Compound	% Inhibition [%]
Cc1cccc2c1-c1ccccc1C2COC(=O)N[C@@H](CC(C)C)C(=O)O (stereo partly drawn) [NPC 15325, N-{[9H-(4-Methylfluoren-9-yl)methoxy]carbonyl}-L-leucine]	16
CCCC[C@H](NC(=O)OCC1c2ccccc2-c2cccc(C)c21)C(=O)O (stereo partly drawn) [NPC 15951, N-{[9H-(1-Methylfluoren-9-yl)methoxy]carbonyl}-L-norleucine]	40
Cc1cccc2c1-c1ccccc1C2COC(=O)N[C@H](C(=O)O)C(C)(C)C (stereo partly drawn) [NPC 15904, N-{[9H-(4-Methylfluoren-9-yl)methoxy]carbonyl}-L-tert-leucine]	0

same assay, conditions: i.p., 30 mg/kg; 2 h

Compound	% Inhibition [%]
Cc1cccc2c1-c1ccccc1C2COC(=O)N[C@@H](CC(C)C)C(=O)O (stereo partly drawn) [NPC 15325, N-{[9H-(4-Methylfluoren-9-yl)methoxy]carbonyl}-L-leucine]	25
CCCC[C@H](NC(=O)OCC1c2ccccc2-c2cccc(C)c21)C(=O)O (stereo partly drawn) [NPC 15951, N-{[9H-(1-Methylfluoren-9-yl)methoxy]carbonyl}-L-norleucine]	62
Cc1cccc2c1-c1ccccc1C2COC(=O)N[C@H](C(=O)O)C(C)(C)C (stereo partly drawn) [NPC 15904, N-{[9H-(4-Methylfluoren-9-yl)methoxy]carbonyl}-L-tert-leucine]	10

same assay, conditions: i.p., 100 mg/kg; 2 h

Compound	% Inhibition [%]
Cc1cccc2c1-c1ccccc1C2COC(=O)N[C@@H](CC(C)C)C(=O)O (stereo partly drawn) [NPC 15325, N-{[9H-(4-Methylfluoren-9-yl)methoxy]carbonyl}-L-leucine]	78
CCCC[C@H](NC(=O)OCC1c2ccccc2-c2cccc(C)c21)C(=O)O (stereo partly drawn) [NPC 15951, N-{[9H-(1-Methylfluoren-9-yl)methoxy]carbonyl}-L-norleucine]	62
Cc1cccc2c1-c1ccccc1C2COC(=O)N[C@H](C(=O)O)C(C)(C)C (stereo partly drawn) [NPC 15904, N-{[9H-(4-Methylfluoren-9-yl)methoxy]carbonyl}-L-tert-leucine]	68

system: Ear Edema Caused by Oxazolone; assay: Inhibition of Ear Edema Caused by Oxazolone (II), Table 10; type: in vivo, CF-1 mice; conditions: i.p., 10 mg/kg; 24 h
Procedure: Inhibition of Ear Edema Caused by Oxazolone (II)
CF-1 mice, 25-30 g body weight, five to six animals per group were used. The mice were sensitized to the irritant two weeks prior to the test by dribbling 100 μL of a 3% solution of oxazolone in acetone onto the abdominal skin of the animal. Test compounds were administered intraperitoneally as follows. […] The irritant, 3% oxazolone in acetone, was added to the surface of the ear, 5 μL added to the upper surface and 5 μL added to the lower surface. After twenty four hours, the thickness of the ear was measured to 0.01 mm by a micrometer with loose drag, positioned at the lateral-most edge of the mid-point of the pinna. Data were calculated as the inhibition of increased ear thickness compared to control animals' receiving only the irritant.

Compound	% Inhibition Intraperitoneal [%]
Cc1cccc2c1-c1ccccc1C2COC(=O)N[C@@H](CC(C)C)C(=O)O (stereo partly drawn) [NPC 15325, N-{[9H-(4-Methylfluoren-9-yl)methoxy]carbonyl}-L-leucine]	22
CCCC[C@H](NC(=O)OCC1c2ccccc2-c2cccc(C)c21)C(=O)O (stereo partly drawn) [NPC 15951, N-{[9H-(1-Methylfluoren-9-yl)methoxy]carbonyl}-L-norleucine]	33
Cc1cccc2c1-c1ccccc1C2COC(=O)N[C@H](C(=O)O)C(C)(C)C (stereo partly drawn) [NPC 15904, N-{[9H-(4-Methylfluoren-9-yl)methoxy]carbonyl}-L-tert-leucine]	21

same assay, conditions: i.p., 30 mg/kg; 24 h

Compound	% Inhibition Intraperitoneal [%]
Cc1cccc2c1-c1ccccc1C2COC(=O)N[C@@H](CC(C)C)C(=O)O (stereo partly drawn) [NPC 15325, N-{[9H-(4-Methylfluoren-9-yl)methoxy]carbonyl}-L-leucine]	24
CCCC[C@H](NC(=O)OCC1c2ccccc2-c2cccc(C)c21)C(=O)O (stereo partly drawn) [NPC 15951, N-{[9H-(1-Methylfluoren-9-yl)methoxy]carbonyl}-L-norleucine]	23
Cc1cccc2c1-c1ccccc1C2COC(=O)N[C@H](C(=O)O)C(C)(C)C (stereo partly drawn) [NPC 15904, N-{[9H-(4-Methylfluoren-9-yl)methoxy]carbonyl}-L-tert-leucine]	54

same assay, conditions: i.p., 100 mg/kg; 24 h

Compound	% Inhibition Intraperitoneal [%]
Cc1cccc2c1-c1ccccc1C2COC(=O)N[C@@H](CC(C)C)C(=O)O (stereo partly drawn) [NPC 15325, N-{[9H-(4-Methylfluoren-9-yl)methoxy]carbonyl}-L-leucine]	49
CCCC[C@H](NC(=O)OCC1c2ccccc2-c2cccc(C)c21)C(=O)O (stereo partly drawn) [NPC 15951, N-{[9H-(1-Methylfluoren-9-yl)methoxy]carbonyl}-L-norleucine]	49
Cc1cccc2c1-c1ccccc1C2COC(=O)N[C@H](C(=O)O)C(C)(C)C (stereo partly drawn) [NPC 15904, N-{[9H-(4-Methylfluoren-9-yl)methoxy]carbonyl}-L-tert-leucine]	79

system: Ear Edema Caused By Tetradecanoylphorbol Acetate; assay: Inhibition of Ear Edema Caused by Tetradecanoylphorbol Acetate (II), Table 7; type: in vivo, CF-1 Mice; conditions: i.p., 10 mg/kg; 3 h
Procedure: Inhibition of Ear Edema Caused by Tetradecanoylphorbol Acetate (II)
CF-1 Mice, 25-30 g body weight, six animals per group were used. Test compounds were administered intraperitoneally or topically as follows. For intraperitoneal administration, the test compound was dissolved in dimethyl sulfoxide or 0.5% methylcellulose and 100 microliters was injected 30 minutes prior to irritant (100 mg/kg, i.p.). […] A solution of the irritant, tetradecanoylphorbol acetate, 200 μg/mL, was added to the surface of the ear, 5 μL to the upper surface and 5 μL to the lower surface. After three hours, the thickness of the ear was measured to 0.01 mm by a micrometer with loose drag, positioned at the lateral-most edge of the mid-point of the pinna. Data were calculated as the inhibition of increased ear thickness compared to control animals receiving only the irritant.

Compound	% Inhibition Intraperitoneal [%]
Cc1cccc2c1-c1ccccc1C2COC(=O)N[C@@H](CC(C)C)C(=O)O (stereo partly drawn) [NPC 15325, N-{[9H-(4-Methylfluoren-9-yl)methoxy]carbonyl}-L-leucine]	36
CCCC[C@H](NC(=O)OCC1c2ccccc2-c2cccc(C)c21)C(=O)O (stereo partly drawn) [NPC 15951, N-{[9H-(1-Methylfluoren-9-yl)methoxy]carbonyl}-L-norleucine]	41
Cc1cccc2c1-c1ccccc1C2COC(=O)N[C@H](C(=O)O)C(C)(C)C (stereo partly drawn) [NPC 15904, N-{[9H-(4-Methylfluoren-9-yl)methoxy]carbonyl}-L-tert-leucine]	16

same assay, conditions: i.p., 30 mg/kg; 3 h

Compound	% Inhibition Intraperitoneal [%]
Cc1cccc2c1-c1ccccc1C2COC(=O)N[C@@H](CC(C)C)C(=O)O (stereo partly drawn) [NPC 15325, N-{[9H-(4-Methylfluoren-9-yl)methoxy]carbonyl}-L-leucine]	11
CCCC[C@H](NC(=O)OCC1c2ccccc2-c2cccc(C)c21)C(=O)O (stereo partly drawn) [NPC 15951, N-{[9H-(1-Methylfluoren-9-yl)methoxy]carbonyl}-L-norleucine]	39
Cc1cccc2c1-c1ccccc1C2COC(=O)N[C@H](C(=O)O)C(C)(C)C (stereo partly drawn) [NPC 15904, N-{[9H-(4-Methylfluoren-9-yl)methoxy]carbonyl}-L-tert-leucine]	0

same assay, conditions: i.p., 100 mg/kg; 3 h

Compound	% Inhibition Intraperitoneal [%]
Cc1cccc2c1-c1ccccc1C2COC(=O)N[C@@H](CC(C)C)C(=O)O (stereo partly drawn) [NPC 15325, N-{[9H-(4-Methylfluoren-9-yl)methoxy]carbonyl}-L-leucine]	82
CCCC[C@H](NC(=O)OCC1c2ccccc2-c2cccc(C)c21)C(=O)O (stereo partly drawn) [NPC 15951, N-{[9H-(1-Methylfluoren-9-yl)methoxy]carbonyl}-L-norleucine]	70
Cc1cccc2c1-c1ccccc1C2COC(=O)N[C@H](C(=O)O)C(C)(C)C (stereo partly drawn) [NPC 15904, N-{[9H-(4-Methylfluoren-9-yl)methoxy]carbonyl}-L-tert-leucine]	43
